In publication PMC5716993, “The interdomain flexible linker of the polypeptide GalNAc transferases dictates their long-range glycosylation preferences” (Nature Communications, 2017):
“Also recorded” adds a separate entry of the source.

Key:
GalNAc-T4 [1] = target: T1, GalNAc-T4 (Homo sapiens, UniProt Q8N4A0); test: Surface plasmon resonance; assay type: binding; conditions: SPR; peptide 0.01–5 mM; 25 °C, pH 7.5, 100 µM UDP, 4 mM MnCl2; in words
T1 construct: amino acid residues 36–578 of the human GalNAc-T4; histidine tag (C); made in house; host or cells: Pichia pastoris SMD1168 (pPICZαA, secreted)
Experimental: SPR experiments were performed at 25 °C with a Biacore X-100 apparatus (Biacore AB) in 25 mM Tris buffer, 1 mM DTT, 4 mM MnCl2, 100 µM UDP, 0.01% surfactant P20, pH 7.5 (running buffer) at 25 °C. Flow cells (CM5 sensor chip; Biacore) were activated for 7 min by injecting 140 µl of 50 mM N-hydroxysuccinimide (NHS): 200 mM ethyl-3(3dimethylamino) propylcarbodiimide (EDC). GalNAc-T4 was immobilized on a flow cell 2 by injection of a 100 µg/ml protein solution diluted with 10 mM sodium acetate buffer with a flow rate of 10 µl/min for 7 min followed by an injection of 130 µl ethanolamine to block any remaining activated groups on the surface. The level of immobilization reached was about 8000 RU. Flow cell 1, used as reference, was blocked with ethanolamine at the same conditions of flow cell 2 without immobilization of protein. Affinity experiments were made using a series of different concentrations of peptide 3 in the range of 0.01–5 mM with a flow rate of 30 µl/min during 100 s. Each injection was followed by a 100 s injection of running buffer (dissociation phase). No regeneration steps were performed between injections. Response data were collected at real time and analyzed with the Biacore® X-100 Evaluation software and plotted as response shift versus analyte concentration.

[2] = target: T2, GalNAc-T2-t4Flexible linker (Chimera 3) (Homo sapiens, UniProt Q10471, A446W/D441E/D444P/E436N/F447H/H442D/I445G/Q443R/R438H); test: Transferase assay / Michaelis-Menten kinetics of GalNAc-T2 chimera 3; assay type: biochemical; conditions: for Vmax / Km: Chimera 3 (0.02 µM), pH 6.5 cacodylate, 37 °C, 0.25 mM UDP-[3H]-GalNAc, Michaelis-Menten fit, ± standard deviation; for Vmax: 10 mM MnCl2; for Catalytic efficiency (Vmax/Km): Chimera 3, errors estimated from the largest percent error of Vmax or Km
T2 construct: made in house; host or cells: Pichia pastoris SMD1168 (pPICZαA)
Experimental: (§1) Specific activity determinations: GalNAc-T glycosylation reactions against (glyco)peptides 1–3 were performed with 75 mM sodium cacodylate, pH 6.5, 1 mM 2-mercaptoethanol, 10 mM MnCl2, 0.25 mM [^3H]-radiolabeled UDP-GalNAc (~6 × 10^8 DPM/µmole, American Radiolabeled Chemicals Inc.), and 1.4 mM (~1.25 mg/ml) of (glyco)peptide (from 4 mM stock in 1 mM TRIS, pH ~7) and varying concentrations (0.01 to 0.5 µM) of transferase (determined by OD280), giving a final reaction volumes of 20 µl in 100 µl capped Eppendorf tubes. Reactions were incubated at 37 °C in a thermostated microplate shaker (Taitec Microincubator M-36) and quenched at the appropriate reaction time by the addition of 20 µl of 250 mM EDTA and placed on ice prior to final workup. Typically, for each transferase, glycosylation reactions were performed at the same time with all three (glyco)peptide substrates (including a no peptide control) using the same batch of transferase and the same UDP-[^3H]-GalNAc stock. Before performing time course experiments, the relative activity of each transferase was determined by trial and error against all three peptides to determine the optimal transferase concentration or incubation time that gave no more than 10% peptide glycosylation against the best substrate. Final time course experiments typically consisted of incubation times of 10, 20, and 30, or 30, 60, and 90 or 120 min (depending on activity) and were performed at least twice. Most transferases were also characterized at two different enzyme concentrations (0.01–0.03 and 0.2–0.5 µM) and the results combined. After quenching the reaction and diluting to 4 ml, free UDP and non-hydrolyzed UDP-GalNAc were removed by passage over a Dowex 1 × 8 anion exchange resin (~3 ml column). Total UDP-[^3H]-GalNAc utilization (transfer to peptide substrate and transfer to water, i.e, hydrolysis) was determined by difference after scintillation counting (Beckman LS5801 scintillation counter) 1/20 of the sample before and after passage over Dowex 1 × 8. The extent of [^3H]-GalNAc transfer to peptide and the extent of hydrolysis was determined by Sephadex G10 gel filtration analysis, typically for the longest reaction time point, as previously described. Example gel filtration chromatograms are given in Supplementary Fig. 12. Significant hydrolysis was only observed for GalNAc-T4, which was corrected for in determining its specific activity. Specific activity was obtained by calculating at each individual data time point (of the combined time course plots, Fig. 4b), an individual-specific activity, which was then averaged to obtain the overall average specific activity (and standard deviation). Specific activity is reported as nmol of glycopeptide product formed per min, per pmol of enzyme. Substrate activity ratios (i.e., substrate ratios 2/1, 3/1, and 3/2) were also obtained at each individual time point and averaged (with standard deviation). […] Note that the Microsoft Excel least squares fitting function LINEST was used to obtain the linear plots shown in Fig. 4b while fixing the y intercept to zero. Note that the specific activity calculated from the least square slope differed slightly (less than 10%) from that determined from the average of the individual time points.
(§2) Detailed enzyme kinetics on GalNAc-T4, GalNAc-T2, the GalNAc-T2 triple mutant and GalNAc-T2 chimera 3: Glycosylation reactions were performed as described above using a fixed enzyme concentration (0.06 µM for GalNAc-T4, and 0.02 µM for GalNAc-T2 and its linker constructs) with varying peptide concentrations (typically 45, 90, 180, 350, 700, 1400, and 2000 μM). Incubation times (10–90 min) were chosen such that no more than 30% of the UDP-GalNAc donor was depleted while typically giving less than 10% peptide glycosylation, after correction for UDP-GalNAc hydrolysis described above. Specific activities were obtained from one to two individual incubation time points performed in two–three separate experiments. […]

GalNAc-T2 chimeras 1–3 = test: Specific activity / glycosylation preference of GalNAc-T2 chimeras 1-3; assay type: biochemical; conditions: in words
Experimental: (§3) Specific activity determinations: GalNAc-T glycosylation reactions against (glyco)peptides 1–3 were performed with 75 mM sodium cacodylate, pH 6.5, 1 mM 2-mercaptoethanol, 10 mM MnCl2, 0.25 mM [^3H]-radiolabeled UDP-GalNAc (~6 × 10^8 DPM/µmole, American Radiolabeled Chemicals Inc.), and 1.4 mM (~1.25 mg/ml) of (glyco)peptide (from 4 mM stock in 1 mM TRIS, pH ~7) and varying concentrations (0.01 to 0.5 µM) of transferase (determined by OD280), giving a final reaction volumes of 20 µl in 100 µl capped Eppendorf tubes. […] Before performing time course experiments, the relative activity of each transferase was determined by trial and error against all three peptides to determine the optimal transferase concentration or incubation time that gave no more than 10% peptide glycosylation against the best substrate. […] Total UDP-[^3H]-GalNAc utilization (transfer to peptide substrate and transfer to water, i.e, hydrolysis) was determined by difference after scintillation counting (Beckman LS5801 scintillation counter) 1/20 of the sample before and after passage over Dowex 1 × 8. The extent of [^3H]-GalNAc transfer to peptide and the extent of hydrolysis was determined by Sephadex G10 gel filtration analysis, typically for the longest reaction time point, as previously described. […]

GalNAc-T4 [3] = target: T1, GalNAc-T4; test: Transferase assay / Michaelis-Menten kinetics of GalNAc-T4; assay type: biochemical; conditions: for Catalytic efficiency (Vmax/Km) / Activity of GalNAc-T4 on peptide / glycosylation: GalNAc-T4; for Activity of GalNAc-T4 on peptide / glycosylation: over a range of peptide concentrations, in words
Experimental: as §1, §2

[4] = test system: GalNAc-T2 chimera 1 and 2; test: Specific activity of GalNAc-T2 chimera 1 and 2; assay type: biochemical; conditions: 1.4 mM, in words
Experimental: as §3

T2 sequence (Q10471 75-571 E436N/R438H/D441E/H442D/Q443R/D444P/I445G/A446W/F447H): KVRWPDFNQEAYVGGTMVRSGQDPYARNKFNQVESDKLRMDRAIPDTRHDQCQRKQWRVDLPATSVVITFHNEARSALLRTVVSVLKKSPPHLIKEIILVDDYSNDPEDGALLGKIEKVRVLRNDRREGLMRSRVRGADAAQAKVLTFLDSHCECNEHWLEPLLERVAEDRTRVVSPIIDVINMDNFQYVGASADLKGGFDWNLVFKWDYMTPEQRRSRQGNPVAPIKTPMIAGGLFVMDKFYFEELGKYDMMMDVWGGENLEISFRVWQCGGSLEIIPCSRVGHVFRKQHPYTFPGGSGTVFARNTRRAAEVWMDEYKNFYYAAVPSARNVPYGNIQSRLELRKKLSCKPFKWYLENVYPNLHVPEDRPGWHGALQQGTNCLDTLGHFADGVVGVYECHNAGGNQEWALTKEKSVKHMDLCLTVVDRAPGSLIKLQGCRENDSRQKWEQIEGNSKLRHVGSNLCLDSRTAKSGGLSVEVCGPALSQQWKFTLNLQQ
T1 sequence (Q8N4A0 36-578): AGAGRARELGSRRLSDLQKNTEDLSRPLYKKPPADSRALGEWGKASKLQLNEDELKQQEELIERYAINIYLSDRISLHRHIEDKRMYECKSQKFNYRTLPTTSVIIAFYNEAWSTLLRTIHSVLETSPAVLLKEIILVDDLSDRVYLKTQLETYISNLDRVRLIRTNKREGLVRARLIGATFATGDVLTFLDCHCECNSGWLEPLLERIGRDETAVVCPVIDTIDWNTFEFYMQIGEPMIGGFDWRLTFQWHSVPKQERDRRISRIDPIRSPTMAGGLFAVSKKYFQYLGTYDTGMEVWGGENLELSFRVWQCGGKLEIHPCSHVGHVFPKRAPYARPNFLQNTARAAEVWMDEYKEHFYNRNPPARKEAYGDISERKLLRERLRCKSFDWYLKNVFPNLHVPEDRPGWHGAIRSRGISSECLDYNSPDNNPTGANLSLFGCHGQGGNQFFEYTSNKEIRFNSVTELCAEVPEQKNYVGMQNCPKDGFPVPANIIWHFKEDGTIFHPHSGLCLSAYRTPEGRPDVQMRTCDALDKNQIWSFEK

Row | change in kinetic parameters (Vmax, Km) ([2]; chimera 3, in words) | Substance | Kd determinability / binding saturation (GalNAc-T4 [1]) | Vmax [2] | Km [2] [µM] | Catalytic efficiency (Vmax/Km) [2] [nmol/min] | specific activity and kinetic parameters against monoglycopeptide 3, change (GalNAc-T2 chimeras 1–3) | Catalytic efficiency (Vmax/Km) (GalNAc-T4 [3]; Fig. 2a and text) | Km (GalNAc-T4 [3]; Fig. 2a and text, GalNAc-T4 (0.06 µM), Michaelis-Menten fit) [µM] | Activity of GalNAc-T4 on peptide / glycosylation (GalNAc-T4 [3]) | Vmax (GalNAc-T4 [3]; Supplementary Table 2, GalNAc-T4 (0.06 µM), pH 6.5 cacodylate, 37 °C, 0.25 mM UDP-[3H]-GalNAc, 10 mM MnCl2, corrected for UDP-GalNAc hydrolysis, ± standard deviation) | Km (GalNAc-T4 [3]; Supplementary Table 2, GalNAc-T4 (0.06 µM), pH 6.5 cacodylate, 37 °C, 0.25 mM UDP-[3H]-GalNAc, ± standard deviation) [µM] | Catalytic efficiency (Vmax/Km) (GalNAc-T4 [3]; Supplementary Table 2, errors estimated from the largest percent error of Vmax or Km) [nmol/min] | specific activity against monoglycopeptide 2, change [4]
1 | – | GAT*GAGAGAGTTPGPG [Peptide 3, monoglycopeptide GAT*…, T* denotes the Thr-O-GalNAc moiety] | binding saturation could not be achieved; also recorded: binding saturation was not achieved | 3.69 ± 0.29 mM/(nmole*min) | 990 ± 160 | 3.73 ± 1.2 | remained relative constant | ~ 75 (nmole min)^−1 | ~40 | glycosylated selectively | 3.09± 0.25 mM/(nmole*min) | 41 ± 18 | 75.2 ± 34 | –
2 | changes in Vmax and Km | AGAGTTPGPGAGAT*GA [Peptide 2, monoglycopeptide …*GA, T* denotes the Thr-O-GalNAc moiety] | – | 1.35 ± 0.11 mM/(nmole*min) | 700 ± 140 | 1.93 ± 0.8 | – | – | – | imperceptibly glycosylated; also recorded: too low to determine their kinetic constants; also recorded: largely unglycosylated | – | – | – | decrease in the observed specific activity
